The values below come from article doi:10.1101/2021.06.23.449549v1 (biorxiv, 2021).

The target in one data set is T1, AtPQT11/CYP86A4 (Arabidopsis thaliana, UniProt Q9LMM1).
T1 sequence (Q9LMM1 1-554): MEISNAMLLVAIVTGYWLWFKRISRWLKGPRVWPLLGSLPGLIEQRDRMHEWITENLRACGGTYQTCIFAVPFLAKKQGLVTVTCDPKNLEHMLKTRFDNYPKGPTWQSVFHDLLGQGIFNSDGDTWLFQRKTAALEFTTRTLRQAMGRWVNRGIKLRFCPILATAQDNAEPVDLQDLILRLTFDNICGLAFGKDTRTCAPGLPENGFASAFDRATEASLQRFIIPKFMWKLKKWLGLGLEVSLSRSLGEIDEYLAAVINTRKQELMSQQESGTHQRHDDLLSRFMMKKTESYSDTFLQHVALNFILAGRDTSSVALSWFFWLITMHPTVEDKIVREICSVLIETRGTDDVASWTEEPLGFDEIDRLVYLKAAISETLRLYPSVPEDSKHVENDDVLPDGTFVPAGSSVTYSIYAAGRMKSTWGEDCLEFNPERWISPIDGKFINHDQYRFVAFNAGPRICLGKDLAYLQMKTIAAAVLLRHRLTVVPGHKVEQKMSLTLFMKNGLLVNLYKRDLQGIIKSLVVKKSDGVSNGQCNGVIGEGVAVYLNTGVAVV
It is filed as biochemical. The settings on record: 2 mM NADPH in excess; 25 mM phosphate pH 7.0; 27 °C; N-demethylation.

Substrate in the data set “purified protein”: NC(=O)C1=CN([C@@H]2O[C@H](COP(=O)(O)OP(=O)(O)OC[C@H]3O[C@@H](n4cnc5c(N)ncnc54)[C@H](OP(=O)(O)O)[C@@H]3O)[C@@H](O)[C@H]2O)C=CC1
The experiment in a line: purified protein. Type of data set: biochemical, Arabidopsis thaliana. The settings on record: pH 7.0; 27.0 °C; varied: cofactor.

As for `C[n+]1ccc(-c2cc[n+](C)cc2)cc1` [paraquat, 1,1’-dimethyl-4,4’-bipyridynium dichloride], at AtPQT11/CYP86A4, the Km was found to be 1.34 µM.

B1: AtPQT11/CYP86A4 (Arabidopsis thaliana) (protein)
chain: T1 sequence (Q9LMM1 1-554)
As for B1, the Km in “purified protein” is listed as 1155 (±214.9) μM.
